Experiments:
[1] = target: T1, Brassica napus (canola) EPSP synthase DGT-3 (GENBANK P17688) variant DGT-3 v6 (G→A) (Brassica napus, UniProt P17688, G173A); experiment: In vitro kinetic assay (inorganic phosphate production, malachite green); format: biochemical; settings: for IC50: IC50 (glyphosate)
T1 construct: made in house; host or cells: E. coli Rosetta2 (DE3)
T1 sequence (P17688 73-516 G173A): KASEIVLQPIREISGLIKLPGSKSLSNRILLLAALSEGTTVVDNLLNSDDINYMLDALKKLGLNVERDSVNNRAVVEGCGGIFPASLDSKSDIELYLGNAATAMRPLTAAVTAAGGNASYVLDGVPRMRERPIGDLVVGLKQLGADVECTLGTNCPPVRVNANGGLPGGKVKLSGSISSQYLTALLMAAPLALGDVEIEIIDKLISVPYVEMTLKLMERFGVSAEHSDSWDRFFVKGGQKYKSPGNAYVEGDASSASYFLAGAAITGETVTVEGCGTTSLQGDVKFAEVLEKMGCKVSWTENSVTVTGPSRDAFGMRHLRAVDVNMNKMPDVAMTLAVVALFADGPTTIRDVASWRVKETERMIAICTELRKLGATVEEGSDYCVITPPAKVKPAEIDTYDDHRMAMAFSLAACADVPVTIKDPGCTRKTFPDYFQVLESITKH
Excerpt: (§1) The following Class I enzymes: DGT-1 from Glycine max, DGT-3 from Brassica napus (GENBANK ACC NO: P17688), and DGT-7 from Triticum aestivum (GENBANK ACC NO: EU977181) were used as a comparison. The Class I EPSP synthase enzymes and mutant variants thereof were synthesized and evaluated. A mutation introduced into the plant EPSP synthase enzymes consisted of the Glycine to Alanine mutation made within the EPSP synthase enzyme at a similar location as that of the G96A mutation from the E. coli version of the enzyme. In addition, Threonine to Isoleucine and Proline to Serine mutations were introduced within these Class I EPSP synthase enzymes at analogous positions as that of amino acid 97 (T to I) and amino acid 101 (P to S) in the EPSP synthase of E. coli as described in Funke et al., (2009).
(§2) The location of the amino acid residue which was mutated from glycine to alanine is indicated by the first asterisk. The location of the amino acid residue which was mutated from threonine to isoleucine is indicated by the second asterisk. The location of the third amino acid residue which was mutated from proline to serine is indicated by the third asterisk. These mutations were introduced into different versions of DGT-1, DGT-3, and DGT-7. The different versions of the genes which contain the mutations are described in more detail below.
(§3) Additional constructs containing the dgt-1, dgt-3 and dgt-7 were synthesized. These constructs were used for in vitro testing of the dgt-1 v5, dgt-1 v6, dgt-1 v7, dgt-1 v8, dgt-3 v6, dgt-3 v7, dgt-3 v8, dgt-7 v5, dgt-7 v6, dgt-7 v7, and dgt-7 v8 gene sequences were outsourced to GeneArt for synthesis and cloning. The synthesized genes were cloned into the pET28 expression vector. The resulting constructions were labeled as pDAB102028 containing dgt-1 v5, pDAB102029 containing dgt-1 v6, pDAB102032 containing dgt-1 v7, pDAB102034 containing dgt-1 v8, pDAB100429 containing dgt-3 v6, pDAB100442 containing dgt-3 v7, pDAB100430 containing dgt-3 v8, pDAB102036 containing dgt-7 v5, pDAB102038 containing dgt-7 v6, pDAB102040 containing dgt-7 v7, and pDAB102042 containing dgt-7 v8.
(§4) Recombinant DGT proteins were overexpressed in Rosetta2™ (DE3) cells (Novagen, Madison, Wis.) from the constructs described above. A single colony was used to inoculate 50 mL starter cultures of LB containing chloramphenicol (25 μg/mL) and kanamycin (50 μg/mL) which were cultivated overnight at 37° C. The overnight cultures were used to inoculate 1 L of LB containing chloramphenicol (25 μg/mL) and kanamycin (50 μg/mL). The cultures were grown at 37° C. to an O.D.600=0.6 then placed in an ice water bath for 10 minutes. Expression of the target proteins was achieved by addition of IPTG to a final concentration of 500 μM. Induction was allowed to proceed overnight at 20° C. followed by harvesting via centrifugation at 8,000 rpm for 20 minutes. The cell pellets were stored at −80° C. until required for purification. All purification steps were carried out at 4° C.
(§5) Cell pellets from 1 L cultures were resuspended in 20-30 mL Buffer A (50 mM HEPES pH 7.5, 150 mM KCl, 2 mM DTT, 1 mM EDTA, 20 mM imidazole, and 5% glycerol). COMPLETE™ protease inhibitor cocktail (1 tablet/50 mL, Roche, Indianapolis, Ind.) and lysozyme (1 mg/mL, Sigma-Aldrich, St. Louis, Mo.) were then added and the suspension was stirred for 20 minutes. Cell lysis was performed using a Branson Sonifier 250 (3×60 second bursts) followed by removal of the cell debris by centrifugation at 16,000 rpm for 45 minutes. DGT enzymes were purified to homogeneity in one step via immobilized metal affinity chromatography (IMAC) using a 5 mL HisTrap FF crude column. The column was equilibrated in Buffer A and the sample was loaded in the same buffer. The column was then washed with 10 column volumes of Buffer A followed by elution in a 0-100% Buffer B (50 mM HEPES pH 7.5, 200 mM KCl, 2 mM DTT, 1 mM EDTA, 500 mM imidazole, and 5% glycerol) linear gradient over 25 column volumes. […]

[2] = target: T2, Triticum aestivum (wheat) EPSP synthase DGT-7 variant DGT-7 v8 (T→I, P→S; TIPS) (Triticum aestivum, UniProt B5M6A1, P172S/T168I); experiment: as above; format: biochemical
T2 construct: TIPS double mutant
T2 sequence (B5M6A1 with tags, fused parts or gaps T168I/P172S): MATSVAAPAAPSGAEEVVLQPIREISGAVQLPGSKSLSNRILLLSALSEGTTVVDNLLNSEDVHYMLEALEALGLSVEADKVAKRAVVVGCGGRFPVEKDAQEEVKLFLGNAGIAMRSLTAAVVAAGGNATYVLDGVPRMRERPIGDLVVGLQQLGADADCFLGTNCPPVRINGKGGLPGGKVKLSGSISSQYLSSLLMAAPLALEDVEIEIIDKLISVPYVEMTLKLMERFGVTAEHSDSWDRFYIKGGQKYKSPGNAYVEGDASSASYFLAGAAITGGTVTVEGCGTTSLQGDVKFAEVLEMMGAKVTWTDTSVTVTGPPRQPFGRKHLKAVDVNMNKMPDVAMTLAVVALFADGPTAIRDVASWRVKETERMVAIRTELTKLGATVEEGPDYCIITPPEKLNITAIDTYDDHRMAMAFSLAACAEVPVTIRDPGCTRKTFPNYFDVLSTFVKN
Excerpt: as §1, §2, §3, §4, §5

Compound	increase of Km for PEP ([1]; G to A mutation vs un-mutated) [fold]	kcat/Km ([2]; PEP, pH 7.5, 1 mM S3P) [M⁻¹ s⁻¹]	Km ([2]; read-out: Km for PEP, pH 7.5, 1 mM S3P) [µM]	IC50 ([1]; at 60 μM PEP) [mM]	IC50 ([1]; at 1 mM PEP) [mM]	IC50 ([2]; IC50 (glyphosate), at 60 μM PEP) [mM]	IC50 ([2]; IC50 (glyphosate), at 1 mM PEP, values greater than 50 are estimates) [mM]	IC50 ([2]; tolerance to glyphosate, PEP concentration not given) [mM]
C=C(OP(=O)(O)O)C(=O)O [PEP, phosphoenolpyruvate]	~8	13600	60 to 200					
O=C(O)CNCP(=O)(O)O [glyphosate, N-(phosphonomethyl)glycine]				8.7	15.8	3.6	> 80	3 to 6

— patent US9873883B2, “Glyphosate resistant plants and associated methods” (Dow AgroSciences LLC, priority 2012, dated 2018)
